Data: PubChem BioAssay (NCI)
Several values for one entry are separate records, joined by “and”; a condition that tells them apart may be missing. Identical values can stand only once.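 Method: 48-hour compound exposure of cells in 96-well plates, five concentrations, linear interpolation of endpoints. Here, GI50 denotes the concentration required for 50% inhibition of growth. The concentration for full growth arrest is given as TGI.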 Where a SMILES comes first, the peptide text is derived from it. The star is where a group is joined. Fmoc = O=C(OCC1c2ccccc2-c2ccccc21)*; OtBu = CC(C)(C)O*

Legend:
Experiment in all cases: NCI tumour cell line growth inhibition, 48 h
A498 renal = test system: A498 renal
HCT-15 colon = test system: HCT-15 colon
UACC-257 melanoma = test system: UACC-257 melanoma
HOP-62 NSCLC = test system: HOP-62 NSCLC
BT-549 breast = test system: BT-549 breast
HS 578T breast = test system: HS 578T breast
KM12 colon = test system: KM12 colon
PC-3 prostate = test system: PC-3 prostate
UO-31 renal = test system: UO-31 renal
DMS 273 small cell lung = test system: DMS 273 small cell lung
DLD-1 colon = test system: DLD-1 colon
DMS 114 small cell lung = test system: DMS 114 small cell lung
HOP-18 NSCLC = test system: HOP-18 NSCLC
M19-MEL melanoma = test system: M19-MEL melanoma
XF 498 CNS = test system: XF 498 CNS
SNB-78 CNS = test system: SNB-78 CNS
LXFL 529 NSCLC = test system: LXFL 529 NSCLC
KM20L2 colon = test system: KM20L2 colon

SMILES	TGI (A498 renal)	TGI (HCT-15 colon)	TGI (UACC-257 melanoma)	TGI (HOP-62 NSCLC)	TGI (BT-549 breast)	TGI (HS 578T breast)	TGI (KM12 colon)	TGI (PC-3 prostate)	TGI (UO-31 renal)	TGI (DMS 273 small cell lung) [µM]	TGI (DLD-1 colon) [µM]	TGI (DMS 114 small cell lung) [µM]	TGI (HOP-18 NSCLC) [µM]	TGI (M19-MEL melanoma) [µM]	TGI (XF 498 CNS) [µM]	TGI (SNB-78 CNS) [µM]	GI50 (KM12 colon)	GI50 (PC-3 prostate)	TGI (LXFL 529 NSCLC) [µM]	TGI (KM20L2 colon) [µM]
CC1=C(C(=O)OC2CC3CCC2(C)C3(C)C)C2Nc3ccccc3N(C)C2O1 (stereo not given)	18.9 µM	5.6 µM	3.3 µM	16.6 µM	6.43 µM	16.3 µM	8.67 µM	12.3 µM	7.19 µM	–	–	–	–	–	–	–	–	–	–	–
Cc1ccc(C)n1-c1ccccc1C1C=Cn2c(=O)nnc3c(OC(C)C)c(OC(C)C)c(O)c1c32 (stereo not given)	> 100 µM	60.4 µM	> 100 µM	> 100 µM	> 100 µM	> 100 µM	> 100 µM	> 100 µM	> 100 µM	–	–	–	–	–	–	–	–	–	–	–
COc1cc2c(cc1OC)OC(c1c(OC)ccc(OC)c1O)CC2 (stereo not given)	> 100 µM	> 100 µM	> 100 µM	> 100 µM	> 100 µM	> 100 µM	> 100 µM	> 100 µM	> 100 µM	–	–	–	–	–	–	–	–	–	–	–
C=CC(=O)Nc1ccc(NC(=O)C=C)c2c1C(=O)c1ccccc1C2=O	> 100 µM	> 100 µM	> 100 µM	> 100 µM	> 100 µM	> 100 µM	29.1 µM	> 100 µM	> 100 µM	–	–	–	–	–	–	–	–	–	–	–
COc1cc(/C=C2\C(=O)N(C(=O)Cc3ccccc3)N=C2C)cc(OC)c1OC	–	> 100 µM	> 100 µM	> 100 µM	–	–	> 100 µM	–	> 100 µM	> 100	> 100	> 100	> 100	> 100	> 100	> 100	–	–	–	–
CCCCN1C(=O)C2Cc3c([nH]c4ccccc34)C(c3cccc(O)c3)N2C1=O (stereo not given)	32.8 µM	37.2 µM	33.9 µM	33.1 µM	34.2 µM	69.1 µM	36.2 µM	32.8 µM	32.8 µM	–	–	–	–	–	–	–	–	–	–	–
CC1OC(OC2C(OC(=O)[C@]34CCC(C)(C)C[C@H]3C3=CC[C@@H]5[C@@]6(C)CC[C@H](OC7OC(C(=O)O)C(O)C(O)C7O)C(C)(C)[C@@H]6CC[C@@]5(C)[C@]3(C)C[C@H]4O)OCC(O)C2O)C(O)C(O)C1OC1OCC(O)C(O)C1O (stereo not given in full)	6.22 µM and 3.63 µM	31.6 µM and 33.7 µM	32.6 µM and 34.1 µM	32.7 µM and 28.3 µM	26.9 µM and 29.8 µM	39.5 µM and 39.3 µM	22.3 µM and 14.2 µM	23.7 µM and 18.6 µM	24.1 µM and 20.1 µM	–	–	–	–	–	–	–	9.85 µM and 3.45 µM	11.3 µM and 5.07 µM	–	–
Oc1c(Br)cc(/C=C/c2ccnc(/C=C/c3cc(Br)c(O)c(Br)c3)c2)cc1Br	54.4 µM	73 µM	66.7 µM	> 100 µM	> 100 µM	> 100 µM	38.7 µM	39 µM	35.4 µM	–	–	–	–	–	–	–	–	–	–	–
CCOC(=O)c1cc(C2CCN(c3ccccc3)C2=O)c(/C(O)=C/C(C)=O)[nH]1 (stereo not given)	> 100 µM	> 100 µM	> 100 µM	> 100 µM	> 100 µM	> 100 µM	> 100 µM	> 100 µM	> 100 µM	–	–	–	–	–	–	–	–	–	–	–
CC(=O)O[C@@H]1C[C@]2(C(=O)c3ccccc3)C(=O)C(=O)S[C@]12c1ccccc1	> 100 µM	> 100 µM	> 100 µM	> 100 µM	> 100 µM	> 100 µM	> 100 µM	> 100 µM	> 100 µM	–	–	–	–	–	–	–	–	–	–	–
CC(=O)c1nc2ccccc2n1C(C)C(=O)c1ccccc1 (stereo not given)	> 100 µM	> 100 µM	> 100 µM	> 100 µM	> 100 µM	> 100 µM	> 100 µM	> 100 µM	> 100 µM	–	–	–	–	–	–	–	–	–	–	–
CC(C)C(NC(=O)OCC1c2ccccc2-c2ccccc21)C(=O)NC(CCC(=O)OC(C)(C)C)C(=O)OC(C)(C)C (stereo not given) (Fmoc-Val-Glu(OtBu)-OtBu; configuration not given here)	> 100 µM	> 100 µM	> 100 µM	> 100 µM	> 100 µM	> 100 µM	> 100 µM	> 100 µM	> 100 µM	–	–	–	–	–	–	–	–	–	–	–
CN(C)C(C1=C(O)C(c2ccccc2)N(c2ccccc2)C1=O)N1CCOCC1 (stereo not given)	> 10 µM	> 10 µM	> 10 µM	> 10 µM	> 10 µM	> 10 µM	> 10 µM	> 10 µM	> 10 µM	–	–	–	–	–	–	–	–	–	–	–
COc1ccc(C(c2ccccc2)(c2ccc(OC)cc2)N2C(=O)NC3C(CCCCC(=O)NCCCCCCOP(OCCC#N)N(C(C)C)C(C)C)SCC32)cc1 (stereo not given)	35 µM	35.6 µM	42.6 µM	36.6 µM	–	–	34 µM	–	27.5 µM	25.3	29.4	36.8	24.4	33.1	30.8	34.6	–	–	25.2	30.8
CC[C@]12C=CCN3CC[C@@]4(c5cc(N=O)c(OC)cc5N(C)[C@H]4[C@@](O)(C(=O)OC)[C@@H]1OC(C)=O)[C@@H]32	> 100 µM	> 100 µM	> 100 µM	> 100 µM	> 100 µM	> 100 µM	> 100 µM	> 100 µM	> 100 µM	–	–	–	–	–	–	–	–	–	–	–
CCN1CCC(O)(c2ccc(Oc3ccc(Cl)cc3)cc2)C(C(=O)c2ccc(Oc3ccc(Cl)cc3)cc2)C1 (stereo not given)	23.4 µM	19.9 µM	27.1 µM	21.3 µM	29.7 µM	58.5 µM	14.9 µM	21.3 µM	28.1 µM	–	–	–	–	–	–	–	–	–	–	–
